Experiments:
[1] = tested on: NAMPT gene; experiment: NAMPT gene expression in Caco-2 cells (real-time PCR); assay type: cell-based, human; conditions: 10 μM, 24 hours after addition, relative to β-actin, vs DMSO control (FIG. 1)
Procedure: (§1) Human colon cancer-derived cell line Caco-2 cells (colon, epithelial-like, colorectal adenocarcinoma, human, ATCC HTB-37) were passaged using DMEM (containing 10% FBS, antibiotics (penicillin and streptomycin), and NaHCO3) medium in a CO2 incubator under conditions of 37° C., 5% CO2, and 95% air, and used for testing.
(§2) Caco-2 cells were seeded in a 12-well plate at a cell concentration of 3×10^5 cells/dish, and equol dissolved in DMSO was added at a final concentration of 10 μM after 24 hours and 48 hours. In addition, the same amount of DMSO was added to a control, and resveratrol (Wako Pure Chemical Industries, Ltd.) was added to a positive control at a final concentration of 10 μM.
(§3) Cells were harvested 24 hours after the addition of equol, and total RNA was extracted. cDNA was synthesized using the total RNA and was used as a template for real-time PCR. Real-time PCR was performed using a primer of each gene and the prepared cDNA to measure the expression level of each gene. In addition, the relative gene expression level was calculated using β-actin, which is a housekeeping gene, by dividing the measured value by the expression level of β-actin. The orientation of the primer sequences is 5′ to 3′ from left to right.

[2] = tested on: SIRT1 gene; experiment: SIRT1 gene expression in Caco-2 cells (real-time PCR); assay type: cell-based, human; conditions: 10 μM, 24 hours after addition, relative to β-actin, vs DMSO control (FIG. 2)
Procedure: as §1, §2, §3

[3] = tested on: PGC-1α gene; experiment: PGC-1α gene expression in Caco-2 cells (real-time PCR); assay type: cell-based, human; conditions: 10 μM, 24 hours after addition, relative to β-actin, vs DMSO control (FIG. 3)
Procedure: as §1, §2, §3

[4] = tested on: Caco-2 cells; experiment: Intracellular NAD^+/NADH quantification in Caco-2 cells; assay type: cell-based, human; conditions: 10 μM, 24 hours after addition, vs DMSO control (FIG. 4)
Procedure: (§4) Caco-2 cells were passaged in the same manner as in Example 1 and used for testing. Caco-2 cells were seeded in a 5-mL dish at a cell concentration of 3×10^5 cells/dish, and equol was added in the same manner as in Example 1. In addition, a control and a positive control were prepared in the same manner as well.
The medium was removed 24 hours after the addition of equol, the cells were washed with PBS, then intracellular NAD^+ and NADH were measured using an NAD^+/NADH quantification kit (BioVision, San Francisco, USA), and the NAD^+/NADH ratio was determined.

[5] = tested on: PGC-1α; experiment: PGC-1α expression level and acetyl PGC-1α level in Caco-2 cells (Western blotting, immunoprecipitation); assay type: cell-based, human; conditions: 10 μM, 24 hours after addition, vs DMSO control (FIGS. 5-1, 5-2)
Procedure: as §4
The medium was removed 24 hours after the addition of equol, the cells were washed with PBS, and then cellular proteins were extracted. The extracted proteins were subjected to Western blotting using an anti-PGC-1α antibody (ab77210, abcam, Cambridge, UK) to measure the expression level of PGC-1α. Furthermore, after immunoprecipitation using an anti-acetylated-lysine antibody (#9441S, Cell Signaling Technology, Danvers, MA, USA), the acetyl PGC-1α level was measured by Western blotting.

[6] = tested on: Caco-2 cells; experiment: Intracellular mitochondria in Caco-2 cells (MitoTracker staining, imaging cytometer); assay type: cell-based, human; conditions: 10 μM, 24 hours after addition, vs DMSO control (FIG. 6)
Procedure: as §4, with “μClear Fluorescence Black Plate (Greiner Bio-one)” for “5-mL dish”, “5×10^3” for “3×10^5”
(§5) Mitochondria were stained using MotoTracker Red CMXRos (Invitrogen Corporation) 24 hours after the addition of equol. The cells were subjected to NI Cell Analyzer 1000 Imaging Cytometer (GE Healthcare Bio-Sciences Corp, Piscataway, NJ, USA) to detect intracellular mitochondria, and the image data were digitized using “mito Tracker” of NI Cell Analyzer 1000 Workstation (GE Healthcare Bio-Sciences Corp, Piscataway, NJ, USA).

[7] = tested on: NAMPT gene; experiment: NAMPT gene expression in C2C12 cells (real-time PCR); assay type: cell-based, mouse; conditions: C2C12 cells (myotubes), 10 μM, 24 hours after addition, relative to β-actin, vs DMSO control (FIG. 7)
Procedure: (§6) Mouse skeletal muscle-derived myoblast cell line C2C12 cells (Muscle, Myoblast, Mus musculus, mouse, ATCC CRL-1772 (strain C3H)) were passaged using DMEM (containing 10% FBS, antibiotics (penicillin and streptomycin), and NaHCO3) medium in a CO2 incubator under conditions of 37° C., 5% CO2, and 95% air.
(§7) After the C2C12 cells reached about 90% confluence, the serum in the medium was replaced with inactivated horse serum, and the serum concentration was lowered to 2% to induce differentiation. Cells on day 5 after differentiation induction were used as C2C12 myotubes for testing.
as §2, with “C2C12” for “Caco-2”, “resveratrol” for “resveratrol (Wako Pure Chemical Industries, Ltd.)”
(§8) Cells were harvested 24 hours after the addition of equol, and total RNA was extracted. cDNA was synthesized using the total RNA and was used as a template for real-time PCR. […] In addition, the relative gene expression level was calculated using β-actin, which is a housekeeping gene, by dividing the measured value by the expression level of β-actin.

[8] = tested on: SIRT1 gene; experiment: SIRT1 gene expression in C2C12 cells (real-time PCR); assay type: cell-based, mouse; conditions: C2C12 cells (myotubes), 10 μM, 24 hours after addition, relative to β-actin, vs DMSO control (FIG. 8)
Procedure: as §6, §7
as §2, with “C2C12” for “Caco-2”, “resveratrol” for “resveratrol (Wako Pure Chemical Industries, Ltd.)”
as §8

[9] = tested on: PGC-1α gene; experiment: PGC-1α gene expression in C2C12 cells (real-time PCR); assay type: cell-based, mouse; conditions: C2C12 cells (myotubes), 10 μM, 24 hours after addition, relative to β-actin, vs DMSO control (FIG. 9)
Procedure: as §6, §7
as §2, with “C2C12” for “Caco-2”, “resveratrol” for “resveratrol (Wako Pure Chemical Industries, Ltd.)”
as §8

[10] = tested on: C2C12 cells; experiment: Intracellular mitochondria in C2C12 myotubes (MitoTracker staining, imaging cytometer); assay type: cell-based, mouse; conditions: 10 μM, 72 hours after addition, vs DMSO control (FIG. 10)
Procedure: as §5
as §7, with “C2C12 cells were passaged in the same manner as in Example 7 and used for testing. C2C12 cells were seeded in a μClear Fluorescence Black Plate (Greiner Bio-one) at a cell concentration of 1×10^4 cells/well. After” for “After”, “the” for “the C2C12”
Equol was added in the same manner as in Example 1. In addition, the same amount of DMSO was also used for a control.
The number of mitochondria was measured 72 hours after the addition of equol in the same manner as in Example 4.

Oc1ccc([C@H]2COc3cc(O)ccc3C2)cc1 [equol, 4′,7-isoflavandiol]
expression level of NAMPT gene [1]: increased the expression levels
expression level of SIRT1 gene [2]: increased the expression levels
expression level of PGC-1α gene [3]: increased the expression levels
NAD^+ (NAD^+/NADH ratio) [4]: increased NAD^+
deacetylation of PGC-1α (acetyl PGC-1α level) [5]: promote deacetylation of PGC-1α
expression level of PGC-1α (protein, Western blotting) [5]: increased the expression level of PGC-1α
number of intracellular mitochondria [6]: increased the number of intracellular mitochondria
expression level of NAMPT gene [7]: increased the expression levels
expression level of SIRT1 gene [8]: increased the expression levels
expression level of PGC-1α gene [9]: increased the expression levels
number of intracellular mitochondria [10]: increased the number of intracellular mitochondria
